Laboratory results published in publication PMC2808025 (Current Chemical Genomics, 2009).
Several values for one entry are separate records, joined by “and”; a condition that tells them apart may be missing. Equal values may be shown once. Read-outs that look alike come from different tables or passages of the source.

Experiments:
human PAP = target: T1, human PAP (Homo sapiens, UniProt P15309); format: biochemical
T1 sequence (P15309 33-386): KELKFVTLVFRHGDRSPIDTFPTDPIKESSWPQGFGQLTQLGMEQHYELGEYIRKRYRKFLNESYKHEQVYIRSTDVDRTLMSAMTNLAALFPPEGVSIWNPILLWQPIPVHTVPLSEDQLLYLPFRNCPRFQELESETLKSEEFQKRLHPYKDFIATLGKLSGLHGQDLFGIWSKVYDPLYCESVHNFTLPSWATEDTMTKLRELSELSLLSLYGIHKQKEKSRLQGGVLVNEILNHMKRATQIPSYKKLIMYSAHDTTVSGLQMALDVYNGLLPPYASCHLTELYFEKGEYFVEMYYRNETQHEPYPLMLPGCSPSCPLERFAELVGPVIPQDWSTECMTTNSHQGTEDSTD

PAP = conditions: cited from earlier work

Q: Which Km (human PAP) does the source give for `Cc1cc(=O)oc2c(F)c(OP(=O)(O)O)c(F)cc12` [DiFMUP, difluoro-4-methylumbelliferyl phosphate] here?
A: The Km was 918 µM.

Q: With `O=P(O)(O)C(NCc1ccccc1)c1ccccc1` (stereo not drawn) [BABPA, α-benzylaminobenzylphosphonic acid] as the compound, how does the IC50 (PAP; known PAP inhibitor) read?
A: The IC50 was “nanomolar range”.

Q: Which results are given for `O=C([O-])[C@H](O)[C@@H](O)C(=O)[O-].[Na+].[Na+]` [sodium L-(+)-tartrate]?
A: Hill slope (human PAP): 0.96 and 0.89; IC50 (human PAP): 53 µM and 40 µM; IC50 (PAP; read-out: published IC50): 29 µM
